“Also recorded” adds a separate entry of the source. Where a name gives a salt, the structure may show the parent alone.
How the values were obtained:
[1] = system: ZIKV in human microglial cell line; experiment: ZIKV replication in microglia treated with nucleoside metabolic inhibitors (RT-qPCR, immunohistochemistry); type: cell-based, Zika virus; conditions: MOI of 1, 1 μM and 10 μM, 48 hpi
Experimental: FIGS. 14A-14D. Nucleoside Metabolic Inhibitors Attenuate ZIKV Replication. (FIG. 14A) ZIKV replication assessed by RT-qPCR analysis 48 hours post-infection in mock, ZIKV only, ZIKV plus 1 μM floxuridine or ZIKV plus 10 μM floxuridine treated microglia. Data are presented as the mean±SEM of n=3. *p<0.05, **p<0.01 by t-test. (FIG. 14B) Immunohistochemistry of ZIKV gene expression in mock, ZIKV only, ZIKV plus 1 μM floxuridine (FUDX1) or ZIKV plus 10 μM floxuridine (FUDX10) treated microglia. Cells were stained with anti-flavivirus envelope protein (ZIKVE), and nuclei were visualized with Hoechst 33258. (FIG. 14C) ZIKV replication assessed by RT-qPCR analysis 48 hours post-infection in mock, ZIKV only, ZIKV plus fluorouracil or ZIKV plus 10 μM fluorouracil treated microglia. Data are presented as the mean±SEM of n=3. *p<0.05, **p<0.01 by t-test. […]
Since metabolic processes are the most dysregulated pathways during ZIKV infection at the transcriptome level, we hypothesized that inhibition of these pathways could be exploited for therapeutic effects. […] The effect of the antimetabolites floxuridine (FIGS. 14A-14B) and flurouracil (FIGS. 14C-14D) on ZIKV replication was assessed 48 hpi at the RNA and protein level by RT-qPCR and immunohistochemistry, respectively.
Drug Treatment. […] ZIKV RNA was quantified by using specific primers by SYBR Green PCR Master Mix (Bio-Rad) using a Roche LightCycler 480. […]

[2] = system: Zika virus in 293 T cells; experiment: Dose dependent inhibition of Zika virus in 293 T cells, IC50 calculated; type: cell-based; conditions: MOI of 5, different concentration of drugs
Experimental: FIGS. 2A-2D. […] FIG. 2A—Lopinavir. FIG. 2B—Daclatasvir. FIG. 2C—Oxyclozanide. FIG. 2D—Rafoxanide.
Conditions: Zika virus in 293 T cells at the MOI of 5 using different concentration of drugs. IC50 was calculated.

ZIKA in Vero cells = experiment: Screening of additional compounds for ZIKA levels using Vero cells (viral RNA released, qRT-PCR); type: cell-based, Zika virus; conditions: 10 μM, viral RNA released by qRT-PCR
Experimental: FIG. 6. Screening of additional compounds for ZIKA levels using Vero cells (in 10 μM concentration). Methods of screening were as described herein. Viral RNA released was analyzed by qRT-PCR for ZIKA. Compounds (left to right): control, berberine, fluoxetine, formoterol, genistine, U0126, dibucaine, pirlindole, suramin, mycophenolic acid, polyhydroxyalkanoates, (PHA) and niclosamide.
FIG. 7. Screening of additional compounds for ZIKA levels using Vero cells (in 10 μM concentration) as described for FIG. 6. Compounds (left to right): clomiphene, amphotericin B, and toremifene.
FIG. 8. Screening of additional compounds for ZIKA levels using Vero cells (in 10 μM concentration) as described for FIG. 6.
FIG. 6 depicts ZIKV levels as determined by qRT-PCR for ZIKA in Vero cells at 10 μM concentration (left to right) of control, berberine, fluoxentine, formoterol, genistine, U0126, dibucaine, pirlindole, suramin, mycophenolic acid, PHA, and niclosamide.
FIG. 7 depicts dose response studies on ZIKV levels for clomiphene, amphotericin B, and toremifene.
FIG. 8 depicts ZIKV levels after administration of various agents. […] Zidovudine. Acyclovir. Drostanolone Propionate, Dapivirine (TMC120), Tilorone hydrochloride, and Docosanol.

ZIKA in 293 cells = experiment: ZIKA inhibition in 293 cells visualized by immune staining; type: cell-based, Zika virus; conditions: 20 μM
Description: FIGS. 9A-9K. […] Drugs: mock (FIG. 9A), DMSO (FIG. 9B), PHA-690509 (FIG. 9C), formoterol (FIG. 9D), fluoxetine (FIG. 9E), genistein (FIG. 9F), U0126 (FIG. 9G), berberine (FIG. 9H), dibucaine (FIG. 9I), pirlindole (FIG. 9J), and suramin (FIG. 9K). Left panels: DAPI; right panels: ZIKV.
Agents in order (top to bottom): mock, DMSO, PHA-690509, formoterol, fluoxetine, genistein, U0126, berberine, dibucaine, pirlindole, and suramin.

| SMILES | ZIKV levels / ZIKV load (Hits) (ZIKA in Vero cells) | ZIKA inhibition visualized by immune staining (ZIKA in 293 cells) | further results |
| --- | --- | --- | --- |
| O=c1[nH]cc(F)c(=O)[nH]1 [flurouracil] |  |  | ZIKV replication (RT-qPCR and immunohistochemistry) [1]: affected ZIKV |
| Cc1cccc(C)c1OCC(=O)N[C@@H](Cc1ccccc1)[C@@H](O)C[C@H](Cc1ccccc1)NC(=O)[C@H](C(C)C)N1CCCNC1=O [Lopinavir, (2S)—N-[(2S,4S,5S)-5-[2-(2,6-dimethylphenoxy)acetamido]-4-hydroxy-1,6-diphenylhexan-2-yl]-3-methyl-2-(2-oxo-1,3-diazinan-1-yl)butanamide] |  |  | Dose dependent inhibition of Zika virus [2]: Dose dependent inhibition |
| CCN(CC)CCOC(=O)c1ccc(N)cc1 [Procaine hydrochloride, 4-amino-, 2-(diethylamino) ethyl ester monohydrochloride] | reduce ZIKV load |  |  |
| O=c1c(-c2ccc(O)cc2)coc2cc(O)cc(O)c12 [genistein] |  | ZIKA inhibition |  |
| Cc1cn([C@H]2C[C@H](N=[N+]=[N-])[C@@H](CO)O2)c(=O)[nH]c1=O [Zidovudine, 3′-deoxy-3′-azido-thymidine] | reduce ZIKV load |  |  |
| Cc1ccc2c(c1)c1c3n2CCNC3CCC1 (centres unmarked) [pirlindole] |  | ZIKA inhibition |  |
| O=c1[nH]c(=O)n([C@H]2C[C@H](O)[C@@H](CO)O2)cc1F [floxuridine] |  |  | ZIKV replication (RT-qPCR and immunohistochemistry) [1]: inhibited ZIKV more efficiently in a dose dependent manner than flurouracil; also recorded: dose-dependent inhibition of ZIKV replication; also recorded: abrogated ZIKV replication |
| CCCCOc1cc(C(=O)NCCN(CC)CC)c2ccccc2n1 [dibucaine] |  | ZIKA inhibition |  |
| COc1ccc2cc3[n+](cc2c1OC)CCc1cc2c(cc1-3)OCO2 [berberine] |  | ZIKA inhibition |  |
| Cc1ccc(C(=O)Nc2ccc(S(=O)(=O)O)c3cc(S(=O)(=O)O)cc(S(=O)(=O)O)c23)cc1NC(=O)c1cccc(NC(=O)Nc2cccc(C(=O)Nc3cc(C(=O)Nc4ccc(S(=O)(=O)O)c5cc(S(=O)(=O)O)cc(S(=O)(=O)O)c45)ccc3C)c2)c1 [suramin, 8,8′-{Carbonylbis[imino-3,1-phenylenecarbonylimino(4-methyl-3,1-phenylene)carbonylimino]}di(1,3,5-naphthalenetrisulfonic acid)] |  | ZIKA inhibition |  |
| CNCCC(Oc1ccc(C(F)(F)F)cc1)c1ccccc1 (centres unmarked) [fluoxetine, N-methyl-3-phenyl-3-[4-(trifluoromethyl)phenoxy]propan-1-amine] |  | ZIKA inhibition |  |
| O=C(Nc1cc(Cl)cc(Cl)c1O)c1c(O)c(Cl)cc(Cl)c1Cl [Oxyclozanide] |  |  | Dose dependent inhibition of Zika virus [2]: Dose dependent inhibition |
| N#CC(=C(/N)Sc1ccccc1N)/C(C#N)=C(\N)Sc1ccccc1N [U0126] |  | ZIKA inhibition |  |
| CC(=O)Nc1ccc([C@H](C)C(=O)Nc2ncc(C(C)C)s2)cc1 [PHA-690509] |  | ZIKA inhibition |  |
| O=C(Nc1ccc(Oc2ccc(Cl)cc2)c(Cl)c1)c1cc(I)cc(I)c1O [Rafoxanide] |  |  | Dose dependent inhibition of Zika virus [2]: Dose dependent inhibition |
| Cc1cc(C)c(Nc2ccnc(Nc3ccc(C#N)cc3)n2)c(C)c1 [Dapivirine (TMC120), 4-{[4-(mesitylamino)-2-pyrimidinyl]amino}benzonitrile] | reduce ZIKV load |  |  |
| CCCCCCCCCCCCCCCCCCCCCCO [Docosanol] | reduce ZIKV load |  |  |
| Nc1nc2c(ncn2COC(CO)CO)c(=O)[nH]1 [Ganciclovir, 9-(1,3-dihydroxy-2-propoxymethyl)guanine] | reduce ZIKV load |  |  |
| CCN(CC)CCOc1ccc2c(c1)C(=O)c1cc(OCCN(CC)CC)ccc1-2.Cl [Tilorone hydrochloride, 2,7-Bis(2-diethylaminoethoxy)fluoren-9-one hydrochloride] | reduce ZIKV load |  |  |
| COc1ccc(CC(C)NCC(O)c2ccc(O)c(NC=O)c2)cc1 (centres unmarked) [formoterol] |  | ZIKA inhibition |  |

Source: patent US20210052621A1, “METHODS FOR TREATING FLAVIVIRUSES AND ZIKA INFECTIONS” (THE REGENTS OF THE UNIVERSITY OF CALIFORNIA, priority 2017, published 2021)
